We go through 26 molecules from patent US20250034125A1, “COMPOUNDS AND USES THEREOF” (JANSSEN PHARMACEUTICA NV, priority 2019, published 2025).

Structures are written as SMILES. Like-named read-outs stand apart in the source and are kept apart here. Bounds are passed on as bounds.

The term IC50 denotes the concentration at which inhibition is half-maximal.

The target of one assay is T1, SCD1 (Homo sapiens, UniProt O00767).
T1 construct: host or cells: Saccharomyces cerevisiae ole1Δ strain (W303 pdr1Δ pdr3Δ background), plasmid pRS316, TDH3 promoter
T1 sequence (O00767 1-359): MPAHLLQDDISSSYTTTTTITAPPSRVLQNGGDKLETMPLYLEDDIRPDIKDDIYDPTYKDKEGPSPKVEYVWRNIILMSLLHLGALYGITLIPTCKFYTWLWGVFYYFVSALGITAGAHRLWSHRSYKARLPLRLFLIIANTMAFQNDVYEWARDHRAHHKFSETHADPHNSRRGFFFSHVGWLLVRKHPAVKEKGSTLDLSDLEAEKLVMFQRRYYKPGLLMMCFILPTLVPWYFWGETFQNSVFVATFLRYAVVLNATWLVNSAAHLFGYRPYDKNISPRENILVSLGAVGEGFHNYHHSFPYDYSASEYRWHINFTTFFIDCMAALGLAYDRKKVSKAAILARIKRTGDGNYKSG
The experiment in a line: Growth inhibition of yeast (ole1Δ) expressing human SCD1 as the sole desaturase. The following applies: read-out: SCD1 IC50. It counts as cell-based.

For a further assay, the target named is T2, SCD5 (Homo sapiens, UniProt Q86SK9).
T2 construct: host or cells: Saccharomyces cerevisiae ole1Δ strain (W303 pdr1Δ pdr3Δ background), plasmid pRS316, TDH3 promoter
T2 sequence (Q86SK9 1-330): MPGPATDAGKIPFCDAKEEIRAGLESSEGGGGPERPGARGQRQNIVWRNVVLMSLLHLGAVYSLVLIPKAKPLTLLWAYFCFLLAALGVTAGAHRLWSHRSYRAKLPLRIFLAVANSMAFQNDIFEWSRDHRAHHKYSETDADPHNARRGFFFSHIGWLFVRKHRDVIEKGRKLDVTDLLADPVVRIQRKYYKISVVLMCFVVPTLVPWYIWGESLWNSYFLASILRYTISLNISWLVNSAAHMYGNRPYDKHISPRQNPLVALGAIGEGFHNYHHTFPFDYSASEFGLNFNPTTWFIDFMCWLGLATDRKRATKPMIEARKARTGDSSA
The experiment in a line: Growth inhibition of yeast (ole1Δ) expressing human SCD5 as the sole desaturase. It counts as cell-based. The following applies: read-out: SCD5 IC50.

Setting [1] is: yeast strain with SCD1 plasmid, OD600 growth read at 40 h.
[2] abbreviates: yeast strain with SCD5 plasmid, OD600 growth read at 40 h.

Turning to `Cn1nc(CC(=O)N2CCC(Cc3cc(F)cc(F)c3)CC2)ccc1=O` [Compound 38, 6-(2-(4-(3,5-difluorobenzyl)piperidin-1-yl)-2-oxoethyl)-2-methylpyridazin-3(2H)-one], the half-inhibitory concentration (IC50) at SCD1 (setting [1]) came to 17.2 µM; at SCD5 (setting [2]), 6.37 µM.

Take `Cn1nc(CC(=O)N2CCC(Oc3cccc(Cl)c3)CC2)ccc1=O` [Compound 39]: the results for the half-maximal inhibitory concentration (IC50) on SCD1 (setting [1]) and at SCD5 (setting [2]) were 1.35 µM and 1.38 µM, respectively.

On to `Cn1nc(NC(=O)N2CCC(Cc3cccc(F)c3)CC2)ccc1=O` [Compound 41, 4-(3-fluorobenzyl)-N-(1-methyl-6-oxo-1,6-dihydropyridazin-3-yl)piperidine-1-carboxamide], for which the figures for the IC50 on SCD1 (setting [1]) and on SCD5 (setting [2]) were 2.71 µM and 0.14 µM, respectively.

Consider `Cn1nc(NC(=O)N2CCC(Cc3ccc(Cl)cc3)CC2)ccc1=O` [Compound 43], for which the IC50 was found to be 8.58 µM on SCD1 (setting [1]) and 2.24 µM at SCD5 (setting [2]).

Regarding `Cn1nc(NC(=O)N2CCC(Cc3ccc(F)cc3)CC2)ccc1=O` [Compound 44, 4-(4-fluorobenzyl)-N-(1-methyl-6-oxo-1,6-dihydropyridazin-3-yl)piperidine-1-carboxamide], the values for the IC50 at SCD1 and at SCD5 were 2.21 µM and 1.17 µM, respectively.

In the case of `Cn1nc(NC(=O)N2CCC(F)(Cc3cccc(F)c3)CC2)ccc1=O` [Compound 45, 4-fluoro-4-(3-fluorobenzyl)-N-(1-methyl-6-oxo-1,6-dihydropyridazin-3-yl)piperidine-1-carboxamide], the IC50 on SCD1 (setting [1]) was 1.68 µM; on SCD5 (setting [2]), 0.22 µM.

In the case of `Cn1nc(NC(=O)N2CCC(F)(Cc3cccc(Cl)c3)CC2)ccc1=O` [Compound 46], the IC50 was determined as 0.64 µM at SCD1 (setting [1]) and 0.03 µM on SCD5 (setting [2]).

For `Cn1nc(NC(=O)N2CCC(O)(Cc3cccc(F)c3)CC2)ccc1=O` [Compound 47, 4-(3-fluorobenzyl)-4-hydroxy —N-(1-methyl-6-oxo-1,6-dihydropyridazin-3-yl)piperidine-1-carboxamide], the half-inhibitory concentration (IC50) at SCD1 (setting [1]) and at SCD5 (setting [2]) was over 45 µM each time.

With `COC1(Cc2cccc(F)c2)CCN(C(=O)Nc2ccc(=O)n(C)n2)CC1` [Compound 48, 4-(3-fluorobenzyl)-4-methoxy —N-(1-methyl-6-oxo-1,6-dihydropyridazin-3-yl)piperidine-1-carboxamide], the IC50 on SCD1 (setting [1]) and at SCD5 (setting [2]) was over 45 µM in each case.

Take `Cn1nc(NC(=O)N2CCC(Cc3ccc(F)c(F)c3)CC2)ccc1=O` [Compound 49, 4-(3,4-difluorobenzyl)-N-(1-methyl-6-oxo-1,6-dihydropyridazin-3-yl)piperidine-1-carboxamide]: the 50% inhibitory concentration (IC50) on SCD1 (setting [1]) stood at 8.1 µM; at SCD5 (setting [2]), 0.43 µM.

Turning to `Cn1nc(NC(=O)N2CCC(Cc3cc(F)cc(C#N)c3)CC2)ccc1=O` [Compound 50], the IC50 at SCD1 (setting [1]) is 17.1 µM; on SCD5 (setting [2]), 2.46 µM.

For the molecule `Cn1nc(NC(=O)N2CCC(Cc3ccc(Cl)c(F)c3)CC2)ccc1=O` [Compound 52, 4-(4-chloro-3-fluorobenzyl)-N-(1-methyl-6-oxo-1,6-dihydropyridazin-3-yl)piperidine-1-carboxamide], the IC50 on SCD1 (setting [1]) came out at 2.4 µM; on SCD5 (setting [2]) it was 0.33 µM.

Turning to `Cn1nc(NC(=O)N2CCC(Cc3cc(F)ccc3F)CC2)ccc1=O` [Compound 53], the half-inhibitory concentration (IC50) turned out to be 1.18 µM on SCD1 (setting [1]) and 0.13 µM at SCD5 (setting [2]).

As for `Cn1nc(NC(=O)N2CCC(Cc3ccc(F)c(Cl)c3)CC2)ccc1=O` [Compound 54, 4-(3-chloro-4-fluorobenzyl)-N-(1-methyl-6-oxo-1,6-dihydropyridazin-3-yl)piperidine-1-carboxamide], the half-maximal inhibitory concentration (IC50) on SCD1 (setting [1]) was 0.44 µM; on SCD5 (setting [2]), 0.04 µM.

As for `Cn1nc(NC(=O)N2CCC(Cc3cc(F)cc(Cl)c3)CC2)ccc1=O` [Compound 55, 4-(3-chloro-5-fluorobenzyl)-N-(1-methyl-6-oxo-1,6-dihydropyridazin-3-yl)piperidine-1-carboxamide], the concentration for half-maximal inhibition (IC50) at SCD1 (setting [1]) turned out to be 0.16 µM; at SCD5 (setting [2]) it was 0.02 µM.

For the molecule `Cn1nc(NC(=O)N2CCC(Cc3cccc(C#N)c3Cl)CC2)ccc1=O` [Compound 56, 4-(2-chloro-3-cyanobenzyl)-N-(1-methyl-6-oxo-1,6-dihydropyridazin-3-yl)piperidine-1-carboxamide], the IC50 at SCD1 (setting [1]) and on SCD5 (setting [2]) was over 45 µM in each case.

As for `Cn1nc(NC(=O)N2CCC(Cc3cc(Cl)cc(C#N)c3)CC2)ccc1=O` [Compound 57, 4-(3-chloro-5-cyanobenzyl)-N-(1-methyl-6-oxo-1,6-dihydropyridazin-3-yl)piperidine-1-carboxamide], the results for the IC50 at SCD1 (setting [1]) and on SCD5 (setting [2]) were 9.2 µM and 2.6 µM, respectively.

As to `Cn1nc(NC(=O)N2CCC(Cc3ccc(F)c(C#N)c3)CC2)ccc1=O` [Compound 58, 4-(3-cyano-4-fluorobenzyl)-N-(1-methyl-6-oxo-1,6-dihydropyridazin-3-yl)piperidine-1-carboxamide], the IC50 was over 45 µM at SCD1 (setting [1]) and 10.4 µM at SCD5 (setting [2]).

On to `Cn1nc(NC(=O)N2CCC(F)(Cc3cc(F)cc(F)c3)CC2)ccc1=O` [Compound 59, 4-(3,5-difluorobenzyl)-4-fluoro —N-(1-methyl-6-oxo-1,6-dihydropyridazin-3-yl)piperidine-1-carboxamide], for which the IC50 is over 45 µM at SCD1 (setting [1]) and 11 µM at SCD5 (setting [2]).

For `Cn1nc(NC(=O)N2CCC(F)(Cc3ccc(F)c(F)c3)CC2)ccc1=O` [Compound 60, 4-(3,4-difluorobenzyl)-4-fluoro —N-(1-methyl-6-oxo-1,6-dihydropyridazin-3-yl)piperidine-1-carboxamide], the half-maximal inhibitory concentration (IC50) was 3.9 µM on SCD1 (setting [1]) and 1.1 µM on SCD5 (setting [2]).

As for `Cn1nc(NC(=O)N2CCC(Cc3cc(F)c(F)cc3Cl)CC2)ccc1=O` [Compound 61, 4-(2-chloro-4,5-difluorobenzyl)-N-(1-methyl-6-oxo-1,6-dihydropyridazin-3-yl)piperidine-1-carboxamide], the half-inhibitory concentration (IC50) was 0.08 µM on SCD1 (setting [1]) and 0.04 µM on SCD5 (setting [2]).

As for `Cn1nc(NC(=O)N2CCC(Cc3cc(F)c(F)c(F)c3)CC2)ccc1=O` [Compound 62, N-(1-methyl-6-oxo-1,6-dihydropyridazin-3-yl)-4-(3,4,5-trifluorobenzyl)piperidine-1-carboxamide], the half-inhibitory concentration (IC50) at SCD1 (setting [1]) amounted to 0.39 µM; at SCD5 (setting [2]), 0.02 µM.

With `Cn1nc(NC(=O)N2CCC(Cc3cc(F)c(F)c(Cl)c3)CC2)ccc1=O` [Compound 63, 4-(3-chloro-4,5-difluorobenzyl)-N-(1-methyl-6-oxo-1,6-dihydropyridazin-3-yl)piperidine-1-carboxamide], the IC50 on SCD1 (setting [1]) came out at 0.13 µM; at SCD5 (setting [2]), 0.01 µM.

As to `Cn1nc(NC(=O)N2CCC(Cc3cc(F)cc(F)c3Cl)CC2)ccc1=O` [Compound 64, 4-(2-chloro-3,5-difluorobenzyl)-N-(1-methyl-6-oxo-1,6-dihydropyridazin-3-yl)piperidine-1-carboxamide], the half-maximal inhibitory concentration (IC50) on SCD1 (setting [1]) amounted to 0.05 µM; at SCD5 (setting [2]), 0.01 µM.

For the molecule `Cn1nc(NC(=O)N2CCC(Cc3cc(F)c(F)c(C#N)c3)CC2)ccc1=O` [Compound 65, 4-(3-cyano-4,5-difluorobenzyl)-N-(1-methyl-6-oxo-1,6-dihydropyridazin-3-yl)piperidine-1-carboxamide], the IC50 on SCD1 (setting [1]) was determined as 8.15 µM; on SCD5 (setting [2]) it was 1.49 µM.

For `Cn1nc(NC(=O)N2CCC(F)(Cc3cc(F)c(F)c(Cl)c3)CC2)ccc1=O` [Compound 66, 4-(3-chloro-4,5-difluorobenzyl)-4-fluoro —N-(1-methyl-6-oxo-1,6-dihydropyridazin-3-yl)piperidine-1-carboxamide], the 50% inhibitory concentration (IC50) at SCD1 (setting [1]) stood at 6.5 µM; on SCD5 (setting [2]), 0.92 µM.
